biological target: T1, human CGT (ceramide galactosyltransferase), CHO/CGT lysate (Homo sapiens, UniProt Q16880); test: CGT enzyme assay, RapidFire/MS/MS readout (Table 1 ranges with one asterisk *); format: biochemical; settings: RapidFire method (range with one asterisk *)
T1 construct: Full-length human CGT cDNA was cloned into the BamH1/Xho1 site of pcDNA3.1 (+); expressed in transfected cells; host or cells: Chinese hamster ovary (CHO) cells; lysate prepared with M-PER
T1 sequence (Q16880 21-541): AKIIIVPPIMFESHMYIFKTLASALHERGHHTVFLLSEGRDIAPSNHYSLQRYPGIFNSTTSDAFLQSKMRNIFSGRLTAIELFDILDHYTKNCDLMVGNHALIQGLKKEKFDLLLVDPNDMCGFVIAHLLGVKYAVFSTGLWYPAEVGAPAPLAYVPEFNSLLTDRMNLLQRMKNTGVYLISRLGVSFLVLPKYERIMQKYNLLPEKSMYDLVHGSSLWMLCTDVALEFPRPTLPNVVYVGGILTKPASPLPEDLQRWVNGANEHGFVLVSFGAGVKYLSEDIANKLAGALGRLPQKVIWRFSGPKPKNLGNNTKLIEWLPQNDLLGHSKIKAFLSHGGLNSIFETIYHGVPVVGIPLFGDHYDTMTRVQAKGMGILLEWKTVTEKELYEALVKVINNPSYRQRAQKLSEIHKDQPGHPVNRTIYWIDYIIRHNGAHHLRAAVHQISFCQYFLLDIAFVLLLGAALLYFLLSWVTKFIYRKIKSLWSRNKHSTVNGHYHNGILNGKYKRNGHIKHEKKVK
Procedure, shortened: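 IC50s come from variable-slope dose-response fits of internal-standard-normalized C6-NBD-dihydro-galactosylceramide, measured by RapidFire/MS/MS (ESI negative). Reactions: 1 h, 37 °C, human CGT-expressing CHO lysate (4 μg), 0.001–50 μM compound, 10 μM NBD-dihydro-ceramide, 17.5 μM UDP-galactose, 0.5% DMSO, pH 7.2; 0.01% Tween 80 added for ** values.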

| SMILES | IC50 |
| --- | --- |
| NC1CCN(C(=O)[C@@H](NS(=O)(=O)c2ccc3cc(OC4CCCC4)ccc3c2)C(F)(F)c2ccc(C(F)(F)F)cc2)CC1 [Compound 71-1, (R)—N-(3-(4-aminopiperidin-1-yl)-1,1-difluoro-3-oxo-1-(4-(trifluoromethyl)phenyl)propan-2-yl)-6-(cyclopentyloxy)naphthalene-2-sulfonamide] | < 1 µM |
| NC1CCN(C(=O)[C@H](NS(=O)(=O)c2ccc3cc(OC4CCCC4)ccc3c2)C(F)(F)c2ccc(C(F)(F)F)cc2)CC1 [Compound 71-2, (S)—N-(3-(4-aminopiperidin-1-yl)-1,1-difluoro-3-oxo-1-(4-(trifluoromethyl)phenyl)propan-2-yl)-6-(cyclopentyloxy)naphthalene-2-sulfonamide] | 1 to 10 µM |
| NC1CCN(C(=O)[C@@H](NS(=O)(=O)c2ccc(OCC3CCCCC3)cc2)C(F)(F)c2ccc(C(F)(F)F)cc2)CC1 [Compound 72-1, (R)—N-(3-(4-aminopiperidin-1-yl)-1,1-difluoro-3-oxo-1-(4-(trifluoromethyl)phenyl)propan-2-yl)-4-(cyclohexylmethoxy)benzenesulfonamide] | 1 to 10 µM |
| NC1CCN(C(=O)[C@H](NS(=O)(=O)c2ccc(OCC3CCCCC3)cc2)C(F)(F)c2ccc(C(F)(F)F)cc2)CC1 [Compound 72-2, (S)—N-(3-(4-aminopiperidin-1-yl)-1,1-difluoro-3-oxo-1-(4-(trifluoromethyl)phenyl)propan-2-yl)-4-(cyclohexylmethoxy)benzenesulfonamide] | 30 to 100 µM |
| CN([C@H](C(=O)N1C2CCC1CC(N)C2)C(F)(F)c1ccc(C(F)(F)F)cc1)S(=O)(=O)c1ccc2cc(OC3CCCC3)ccc2c1 (stereo partly drawn) [Compound 73-1, N-((2R)-3-(3-amino-8-azabicyclo[3.2.1]octan-8-yl)-1,1-difluoro-3-oxo-1-(4-(trifluoromethyl)phenyl)propan-2-yl)-6-(cycyclopentyloxy)-N-methylnaphthalene-2-sulfonamide] | < 1 µM |
| CN([C@@H](C(=O)N1C2CCC1CC(N)C2)C(F)(F)c1ccc(C(F)(F)F)cc1)S(=O)(=O)c1ccc2cc(OC3CCCC3)ccc2c1 (stereo partly drawn) [Compound 73-2, N-((2S)-3-(3-amino-8-azabicyclo[3.2.1]octan-8-yl)-1,1-difluoro-3-oxo-1-(4-(trifluoromethyl)phenyl)propan-2-yl)-6-(cyclopentyloxy)-N-methylnaphthalene-2-sulfonamide] | 1 to 10 µM |
| NC1CC2CCC(C1)N2C(=O)[C@@H](NS(=O)(=O)c1ccc2c(cnn2CC2CCCC2)c1)C(F)(F)c1ccc(Br)cc1 (stereo partly drawn) [Compound 74-1, N-((2R)-3-(3-amino-8-azabicyclo[3.2.1]octan-8-yl)-1-(4-bromophenyl)-1,1-difluoro-3-oxopropan-2-yl)-1-(cyclopentylmethyl)-1H-indazole-5-sulfonamide] | 1 to 10 µM |
| NC1CC2CCC(C1)N2C(=O)[C@H](NS(=O)(=O)c1ccc2c(cnn2CC2CCCC2)c1)C(F)(F)c1ccc(Br)cc1 (stereo partly drawn) [Compound 74-2, N-((2S)-3-(3-amino-8-azabicyclo[3.2.1]octan-8-yl)-1-(4-bromophenyl)-1,1-difluoro-3-oxopropan-2-yl)-1-(cyclopentylmethyl)-1H-indazole-5-sulfonamide] | 30 to 100 µM |
| CN([C@H](C(=O)N1C2CCC1CC(N)C2)C(F)(F)c1ccc(Br)cc1)S(=O)(=O)c1ccc2c(cnn2CC2CCCC2)c1 (stereo partly drawn) [Compound 75-1, N-((2R)-3-(3-amino-8-azabicyclo[3.2.1]octan-8-yl)-1-(4-bromophenyl)-1,1-difluoro-3-oxopropan-2-yl)-1-(cyclopentylmethyl)-N-methyl-1H-indazole-5-sulfonamide] | 1 to 10 µM |
| CN([C@@H](C(=O)N1C2CCC1CC(N)C2)C(F)(F)c1ccc(Br)cc1)S(=O)(=O)c1ccc2c(cnn2CC2CCCC2)c1 (stereo partly drawn) [Compound 75-2, N-((2S)-3-(3-amino-8-azabicyclo[3.2.1]octan-8-yl)-1-(4-bromophenyl)-1,1-difluoro-3-oxopropan-2-yl)-1-(cyclopentylmethyl)-N-methyl-1H-indazole-5-sulfonamide] | 30 to 100 µM |

Source: US20190322676A1, “CERAMIDE GALACTOSYLTRANSFERASE INHIBITORS FOR THE TREATMENT OF DISEASE” (BioMarin Pharmaceutical Inc., priority 2016, published 2019)
